Measurements published in patent US7115759B2, “Conjugated linoleic acid compositions” (Natural ASA, priority 2002, dated 2006).

Experiments:
[1] = Peroxide value (PV) by chlorimetric ferric thiocyanate method after storage; assay type: physicochemical; details: after storage in open glass; spectrophotometric ferric thiocyanate method; unit assumed
Source text: The present invention also contemplates stabilization of CLA containing compounds, including but not limited to, CLA, esters of CLA, and triglycerides of CLA by preventing oxidation of the compounds. The present invention is not limited to any one mechanism. Indeed, an understanding of the mechanism of the invention is not necessary to produce the composition or perform the methods of the present invention. […] After storage in open glass, the PV of CLA was 32; in comparison, the value for linoleic acid was 370.

[2] = tested on: rat mammary tumorigenesis; details: administration of CLA; Birt et al. 1992; cited from earlier work
[3] = tested on: human melanoma, colorectal and breast cancer cells; details: in vitro; cited from earlier work
[4] = diets containing 0.5 percent CLA; pigs, mice, humans; U.S. Pat. No. 5,554,646; cited from earlier work

Compound | peroxide value (PV) [1] | rat mammary tumorigenesis [2] | cytotoxicity [3] | fat content [4]
conjugated linoleic acid [CLA] | 32 meq/kg | inhibits rat mammary tumorigenesis | strong cytotoxic agent | significant drop in fat content
CCCCC/C=C\C/C=C\CCCCCCCC(=O)O [linoleic acid] | 370 meq/kg | – | – | –
